Test results taken from PubChem BioAssay AID1963860 (Molecular Pharmacology Branch, DTP, NCI, 2024).
Several values for one entry are separate records, joined by “and”; a condition that tells them apart may be missing. Equal values may be shown once.

System: CN0375-F725-PDC KRAS spheroid viability
Assay: Anticancer human tumor CN0375-F725-PDC patient-derived colon carcinoma cell line growth inhibition [KRAS2]
Settings: spheroids with HUVEC and MSC; for viability, T/C: stronger effect = lower value
In short: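 KRAS-mutant tumor cells were grown as spheroids with HUVEC endothelial cells and human MSCs as stroma. Targeted agents were tested alone and with KRAS pathway inhibitors. Doses started at or near clinical Cmax, or 10 microM, descending half-log.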
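Further: spheroids exposed to agents for 7 days.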

SMILES	viability, T/C (compound 0.0316 µM)	viability, T/C (compound 0.1 µM)	viability, T/C (compound 0.316 µM)	viability, T/C (compound 3.16 µM)	IC50 (compound alone, run of 08/19/2021)	IC50 (compound alone, run of 08/26/2021)	IC50 (compound alone, run of 09/02/2021)	IC50 (curve of compound)	viability, T/C (compound 0.000316 µM)	viability, T/C (compound 0.001 µM)	viability, T/C (compound 0.00316 µM)	viability, T/C (compound 0.01 µM)
CC1OCC2(CCN(c3cnc(Sc4ccnc(N)c4Cl)c(N)n3)CC2)C1N (stereo not given)	98.4% and 98.5% and 100%	94.9% [middle of 19 runs]	89.6% [middle of 19 runs]	78.7% [middle of 20 runs]	> 10 µM	> 10 µM	> 10 µM	> 10 µM	–	–	–	–
CN(C)C/C=C/C(=O)Nc1cc2c(Nc3ccc(F)c(Cl)c3)ncnc2cc1O[C@H]1CCOC1	79.2% [middle of 5 runs]	81.1% [middle of 5 runs]	–	–	–	–	–	> 0.1 µM	105% [middle of 5 runs]	94.1% [middle of 5 runs]	90.4% [middle of 5 runs]	88.3% [middle of 5 runs]
